“Also recorded” adds a separate entry of the source. Where two headings read alike, the source gives them in different places.
Legend:
[1] = system: human melanoma cell lines (M101, M10 and M24); assay: Formation of glycosylceramide in human metastatic melanoma cell lines M101, M10 and M24; format: cell-based; settings: 5.0 μM tamoxifen, 24 h, FIG. 17
From the text: FIG. 17. […] Identical aliquots of total lipid extract were applied to TLC, and the plate was exposed for autoradiography.

MCF-7-AdrR cells = assay: Temporal pattern of tamoxifen influence on total lipid, glycosylceramide, sphingomyelin and ceramide metabolism; format: cell-based
Protocol: FIG. 13A, FIG. 13B and FIG. 13C. Temporal Pattern for the Influence of Tamoxifen on Total Lipid, Glycosylceramide, and Sphingomyelin Metabolism in MCF-7-AdrR Cells. Cells, preincubated in the absence or presence of tamoxifen (20 μM) for 30 min, were labeled by addition of 1.0 μCi/ml [^3 H]palmitic acid for the times shown using RPMI-1640 medium containing 5% FBS. At each time point, cultures were washed with PBS and lipids were extracted as described under Example I. Aliquots of the labeling medium were counted directly by liquid scintillation spectrometry to determine [^3 H]palmitic acid uptake and incorporation into total cell lipids (FIG. 13A). Glycosylceramide (FIG. 13B) and sphingomyelin (FIG. 13C) levels were evaluated by TLC using solvent system I and II, respectively, followed by quantitation of radiolabel in the relevant regions as detailed in Example I. Results are the mean±SEM of duplicate determinations from two separate experiments.
(§1) FIG. 14A and FIG. 14B. Effect of Tamoxifen on Ceramide Synthesis and Glycosylation in MCF-7-AdrR Cells. FIG. 14: A Influence of tamoxifen on ceramide synthesis. The experiment was conducted as described in the legend to FIG. 13. Aliquots of the total lipid extract were based-hydrolyzed as described in Example I, separated by TLC using solvent system IV, and the resolved [^3 H]ceramide was quantitated by liquid scintillation spectrometry. Results are the mean±SEM of duplicate determinations from two separate experiments. FIG. 14B: Effect of tamoxifen on glycosylation of C6 -ceramide. Cells, in 100×20 mm culture dishes, were preincubated without or with 5.0 μM tamoxifen for 30 min, followed by incubation without or with 5.0 μM C6 -ceramide:BSA (prepared at a 1:1 molar ratio) for an additional 30 min. Cells were labeled thereafter with 1.0 μCi/ml [^3 H]galactose for 24 h. [3H]Galactose uptake was determined and found to be similar in all experimental points (1.0×10^6 cpm/dish). The total extracted lipid was applied to TLC separation and [^3 H]glycosphingolipids were analyzed as described in the legend to FIG. 10. The autoradiography of a representative chromatogram is shown.
Lipid analysis was carried out by TLC using solvent system I: chloroform/methanol/ammonium hydroxide (40:10:1, v/v) for glycosylceramide separation, solvent system II: chloroform/methanol/water (60:40:8, v/v) for sphingoglycolipid separation, or solvent system III: chloroform/methanol/acetic acid/water (50:30:7:3, v/v) for sphingomyelin separation. For determination of ceramides, an aliquot of the chloroform-soluble lipids was base-hydrolyzed in 0.1N KOH in methanol for 1 h at 37° C., lipids were re-extracted, and separated by TLC using solvent system IV: hexane/diethyl ether/formic acid (60:40:1, v/v).
Radiochromatograms were sprayed with EN^3 HANCE, and exposed for 3-7 days for autofluorgraphy. TLC areas, aligned with bands on the autoradiographs or with iodine-stained commercial lipid standards, were scraped from the plate. Water (0.5 ml) was added to the plate scrapings followed by 4.5 ml of EcoLume counting fluid, and the samples were quantitated by liquid scintillation spectrometry.

[2] = system: glycosylation of ceramide in MCF-7-AdrR cells (UDP-glucose:ceramide glucosyltransferase); assay: Glycosylation of C6-ceramide and natural glycosphingolipid synthesis, [3H]galactose labeling; format: cell-based; settings: for inhibition at 5 µM: 5.0 μM tamoxifen, FIG. 14B
Protocol: as §1
In order to explore this notion, a short-chain ceramide analog with a 6-carbon N-acyl group (C6 -ceramide), was utilized as a substrate.

acid sphingomyelinase = settings: literature; cited from earlier work

In the case of `CC/C(=C(\c1ccccc1)c1ccc(OCCN(C)C)cc1)c1ccccc1` [tamoxifen], the “inhibition of glucosylceramide formation (in words)” value [1] is reported as “inhibition of glucosylceramide formation”, the “inhibition of glycosylceramide synthesis within 4 h (in words)” value (MCF-7-AdrR cells; tamoxifen 20 μM, 4 h time frame, FIG. 13B) is reported as “almost completely inhibited” and the “uptake and incorporation of [3H]palmitic acid (in words)” value (MCF-7-AdrR cells; tamoxifen 20 μM, FIG. 13A) is reported as “very similar”. For the same compound, the “onset of glycosylceramide formation inhibition” value (MCF-7-AdrR cells; tamoxifen 20 μM, FIG. 13B) was 15 min, the “time of half-maximal influence on glycosylceramide formation” value (MCF-7-AdrR cells; tamoxifen 20 μM, FIG. 13B) was 45 min and the “sphingomyelin synthesis (in words)” value (MCF-7-AdrR cells; tamoxifen 20 μM, FIG. 13C) was “not influenced; also recorded: not altered”. For the same compound, the “level of ceramide / ceramide synthesis (in words)” value (MCF-7-AdrR cells; tamoxifen, FIG. 14A) was “remained unchanged; also recorded: very similar”, the inhibition at 5 µM ([2]; 5.0 μM C6-ceramide, read-out: inhibition of conversion of C6-ceramide to C6-glycosylceramide) was 54% and the inhibition at 5 µM ([2]; in presence of C6-ceramide, read-out: inhibition of formation of natural glycosylceramide) was 43%. The “inhibition of glycosylation of C6-ceramide (in words)” value ([2]; tamoxifen) was “drastically inhibited” and the “inhibition of acid sphingomyelinase (in words)” value (acid sphingomyelinase) was “inhibition of acid sphingomyelinase activity”.

Reference: US5885786A, “Methods for screening of substances for inhibition of multidrug resistance” (priority 1996, dated 1999)
